Experiment: pH of 2.5 wt % aqueous solutions of the salts in purified water
Assay type: physicochemical
Settings: 2.5 wt % aqueous solution in purified water

pH of 2.5% salt solution | Compound
11.31 | O=C([O-])[O-].[Na+].[Na+] [Na2CO3(anhydrous), anhydrous sodium carbonate]
8.09 | O=C([O-])O.[Na+] [NaHCO3(anhydrous), anhydrous sodium bicarbonate]
8.25 | anhydrous sodium acetate [CH3CO2Na(anhydrous)]
8.40 | [Ca+2].[Cl-].[Cl-] [CaCl2(anhydrous), anhydrous calcium chloride]
6.12 | NCC(=O)O [Glycine, glycine]

More lines, now with the values behind:

Compound | pH of 2.5% salt solution
[Cl-].[K+] [KCl, potassium chloride] | 6.05
O=P([O-])([O-])O.[Na+].[Na+] [Na2HPO4(anhydrous), anhydrous disodium hydrogen phosphate] | 8.90
[Cl-].[Na+] [NaCl, sodium chloride] | 5.69
Cl.N [NH4Cl, ammonium chloride] | 4.97

Source: patent US20080214557A1, “METHOD FOR PREPARATION OF PHARMACEUTICAL COMPOSITION HAVING IMPROVED DISINTEGRATABILITY AND PHARMACEUTICAL COMPOSITION MANUFACTURED BY SAME METHOD” (Eisai R&D Management Co., Ltd., priority 2005, published 2008)
